Read-outs that look alike come from different tables or passages of the source.
Experiments:
[1] = target: T1, Recombinant GST-TAG-MASTL (Homo sapiens, UniProt Q96GX5); assay: HTRF-based kinase assay (HTRF KinEASE assay kit); assay type: biochemical; settings: for activity at 1 µM: read-out: MASTL activity (%) HTRF (1 µM)
T1 construct: GST; purchased Thermo Fisher Scientific
T1 sequence (Q96GX5 1-879): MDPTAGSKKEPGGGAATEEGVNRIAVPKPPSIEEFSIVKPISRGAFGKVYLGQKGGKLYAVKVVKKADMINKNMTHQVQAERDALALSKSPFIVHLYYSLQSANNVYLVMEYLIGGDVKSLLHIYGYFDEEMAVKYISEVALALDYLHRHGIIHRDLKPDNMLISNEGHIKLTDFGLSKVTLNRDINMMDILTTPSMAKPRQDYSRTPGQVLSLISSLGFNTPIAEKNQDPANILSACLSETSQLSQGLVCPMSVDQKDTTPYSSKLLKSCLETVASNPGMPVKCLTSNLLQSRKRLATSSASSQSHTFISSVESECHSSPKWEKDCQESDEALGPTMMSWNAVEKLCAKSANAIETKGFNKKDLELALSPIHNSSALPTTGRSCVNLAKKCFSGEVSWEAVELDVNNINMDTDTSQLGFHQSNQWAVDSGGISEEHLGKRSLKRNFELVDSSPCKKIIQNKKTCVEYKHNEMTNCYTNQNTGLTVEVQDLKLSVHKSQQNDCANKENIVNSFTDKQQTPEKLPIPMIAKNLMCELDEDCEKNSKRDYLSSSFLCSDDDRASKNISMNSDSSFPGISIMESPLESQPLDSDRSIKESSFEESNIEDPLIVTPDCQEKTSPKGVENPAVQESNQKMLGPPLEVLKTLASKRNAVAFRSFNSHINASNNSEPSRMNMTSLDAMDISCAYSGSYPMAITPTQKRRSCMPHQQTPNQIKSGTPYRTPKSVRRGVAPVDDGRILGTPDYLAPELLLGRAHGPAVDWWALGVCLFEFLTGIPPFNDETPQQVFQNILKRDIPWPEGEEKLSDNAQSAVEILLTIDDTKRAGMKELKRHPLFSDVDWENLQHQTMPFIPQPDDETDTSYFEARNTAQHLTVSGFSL
Description: Recombinant GST-TAG-MASTL (Thermo Fisher Scientific, MA, USA) was used for HTRF-based kinase assays. The HTRF KinEASE assay kit (CisBio, MA, USA) was used according to the manufacturer's instructions.

[2] = test system: pENSA; assay: pENSA level by immunofluorescence (described method: in vitro kinase analysis with GST-tag-MASTL and His-tag-ENSA); assay type: cell-based; settings: for pENSA (%) Immunofluor ecense (1 µM): compound 1 µM
Summary of the method: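 In vitro kinase reaction using recombinant GST-tagged MASTL with His-tagged ENSA as substrate; phosphorylated ENSA (pENSA) serves as read-out of MASTL activity. Cell lines named: MCF7 breast cancer and MCF10A.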

[3] = in vitro; settings: human
Description: (§1) MCF7 breast cancer cell lines and MCF10A normal breast cancer cell lines were treated with serial dilutions of the compounds of the present invention ranging from 1 µM to 15.63 nM for 72 hours. Cell viability was measured by the WST-8 assay (Cyto XTM cell viability assay kit; LPS solution, Daejeon, Korea) according to the manufacturer's instructions.

[4] = test system: MCF7 breast cancer cell lines; assay: Cell viability analysis, WST-8 assay, MCF7; settings: Homo sapiens, MCF7, 72 h; for viability at 1 µM: read-out: Cell viability (%) WST-8, MCF7 (1 µM), compound 1 µM, 72 hours; for viability at 1.25 µM: read-out: Cell viability (%) WST-8, MCF7, footnote a: concentration 1.25 µM, 72 hours
Description: as §1

[5] = test system: MCF10A normal breast cell lines; assay: Cell viability analysis, WST-8 assay, MCF10A; settings: Homo sapiens, MCF-10A, 72 h
Description: as §1

[6] = read-out: IC50(nM) Cell viability (MCF7)
[7] = read-out: IC50(nM) Cell viability (MCF10A)
[8] = read-out: IC50 Cell viability (MCF7)
[9] = HTRF, read-out: IC50(nM) MASTL activity
[10] = read-out: IC50 Cell viability (MCF10A)

SMILES: Cc1ccc(C2=CCN(c3nc(Nc4cc(C5CC5)[nH]n4)c4ccccc4n3)CC2)c(C)c1 [compound 6j, M-(5-cyclopropyl-1G-pyrazol-3-yl)-2-(4-(2,4-dimethylphenyl)-3,6-dihydropyridin-1(2G)-yl)quinazolin-4-amine]
- activity at 1 µM ([1]; compound 1 µM): 80%
- pENSA (%) Immunofluor ecense (1 µM) [2]: 97.4%
- viability at 1 µM ([3]; mcf10a cells): 33.1%
- viability at 1 µM [4]: 45.6%
- IC50 [4, 6]: 674 nM
- IC50 [5, 7]: 566 nM

SMILES: O=S(=O)(NCCO)c1ccc(Nc2nc(Nc3cc(C4CC4)[nH]n3)c3ccccc3n2)cc1 [compound 4i, 4-((4-((5-cyclopropyl-1G-pyrazol-3-yl)amino)quinazolin-2-yl)amino)-M-(2-hydroxyethyl)benzenesulfonamide]
- IC50 [1]: 1200 nM
- activity at 10 µM ([1]; read-out: MASTL activity (%) HTRF): 8.7%
- pENSA (%) Immunofluor ecense (1 µM) [2]: 16%
- IC50 ([2]; read-out: IC50(nM) pENSA): 378 nM
- viability at 1.25 µM ([3]; mcf10a cells): 5.8%
- viability at 1.25 µM [4]: 45.9%
- IC50 [4, 8]: 1100 nM
- IC50 [5, 7]: 132 nM

SMILES: c1ccc(CCNc2nc(Nc3cc(C4CC4)[nH]n3)c3ccccc3n2)cc1 [compound 4ce, N^4-(5-cyclopropyl-1H-pyrazol-3-yl)-N^2-phenethylquinazoline-2,4-diamine]
- IC50 [1, 9]: 692 nM
- activity at 10 µM ([1]; footnote b: concentration 10 µM, read-out: MASTL activity (%) HTRF): 14.1%
- IC50 ([2]; read-out: IC50(nM) pENSA): 491 nM
- viability at 1.25 µM [3]: 100%
- viability at 1.25 µM [4]: 72.8%
- IC50 [4, 8]: 1500 nM
- IC50 [5, 10]: 3700 nM

SMILES: c1ccc2c(Nc3cc(C4CC4)[nH]n3)nc(Nc3ccc4[nH]ccc4c3)nc2c1 [compound 4db, N^4-(5-cyclopropyl-1H-pyrazol-3-yl)-N^2-(1H-indol-5-yl)quinazoline-2,4-diamine]
- activity at 1 µM ([1]; compound 1 µM): 28.9%
- IC50 ([2]; unit µM, read-out: IC50 pENSA): 2100 nM
- viability at 1 µM [3]: 8.9%
- viability at 1 µM [4]: 3.2%
- IC50 [4, 6]: 221 nM
- IC50 [5, 7]: 300 nM

SMILES: NCCNC(=O)c1ccc(Nc2nc(Nc3cc(C4CC4)[nH]n3)c3ccccc3n2)cc1 [4aa, M-(2-aminoethyl)-4-((4-((5-cyclopropyl-1G-pyrazol-3-yl)amino)quinazolin-2-yl)amino)benzamide.trifluoroacetic acid]
- IC50 [1]: 720 nM
- activity at 1 µM [1]: 26.8%
- pENSA (%) Immunofluor ecense (1 µM) [2]: 142.5%
- viability at 1 µM ([3]; mcf10a cells): 111%
- viability at 1 µM [4]: 87.6%
- IC50 [4, 8]: 4500 nM
- IC50 [5, 10]: 9000 nM

SMILES: Nc1ccc(Nc2nc(Nc3cc(C4CC4)[nH]n3)c3ccccc3n2)cc1 [compound 4v, M^2-(4-aminophenyl)-M^4-(5-cyclopropyl-1G-pyrazol-3-yl)quinazoline-2,4-diamine]
- IC50 ([1]; HTRF, unit µM, read-out: IC50 MASTL activity): 1500 nM
- activity at 1 µM ([1]; compound 1 µM): 41.4%
- pENSA (%) Immunofluor ecense (1 µM) [2]: 15.3%
- viability at 1 µM ([3]; mcf10a cells): 34.1%
- viability at 1 µM [4]: 32.8%
- IC50 [4, 6]: 390 nM
- IC50 [5, 7]: 438 nM

SMILES: c1ccc(Nc2nc(Nc3cc(C4CC4)[nH]n3)c3ccccc3n2)cc1 [compound 4a, M^4-(5-cyclopropyl-1G-pyrazol-3-yl)-M^2-phenylquinazoline-2,4-diamine]
- IC50 [1, 9]: 987 nM
- activity at 1.25 µM ([1]; footnote a: concentration 1.25 µM, read-out: MASTL activity (%) HTRF): 54.9%
- pENSA (%) Immunofluor ecense (1 µM) [2]: 3.7%
- IC50 ([2]; read-out: IC50(nM) pENSA): 501 nM
- viability at 1.25 µM ([3]; mcf10a cells): 34%
- viability at 1.25 µM [4]: 8.1%
- IC50 [4, 6]: 649 nM
- IC50 [5, 7]: 881 nM

SMILES: c1ccc2c(Nc3cc(C4CC4)[nH]n3)nc(Nc3ccc4cc[nH]c4c3)nc2c1 [compound 4dc, N^4-(5-cyclopropyl-1H-pyrazol-3-yl)-N^2-(1H-indol-6-yl)quinazoline-2,4-diamine]
- IC50 [1, 9]: 480 nM
- activity at 1 µM ([1]; compound 1 µM): 22.1%
- IC50 ([2]; unit µM, read-out: IC50 pENSA): 2500 nM
- viability at 1 µM [3]: 54%
- viability at 1 µM [4]: 6.4%
- IC50 [4, 6]: 467 nM
- IC50 [5, 10]: 1300 nM
